PubChem BioAssay (NCI)
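In this assay, cells in 96-well plates receive the compound at five concentrations for 48 hours. Endpoints are linearly interpolated between the surrounding concentrations. Abbreviation: GI50, concentration required for 50% inhibition of growth. TGI marks complete inhibition of growth.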

How the values were obtained:
Assay in all cases: NCI anticancer screen, dose series, 48 h
[1] = system: DU-145 prostate
[2] = system: SK-MEL-2 melanoma
[3] = system: HS 578T breast
[4] = system: EKVX NSCLC
[5] = system: NCI-H226 lung
[6] = system: UACC-62 melanoma
[7] = system: SN12C renal
[8] = system: NCI-H23 lung
[9] = system: A498 renal
[10] = system: HCT-15 colon
[11] = system: SK-MEL-5 melanoma
[12] = system: TK-10 renal
[13] = system: HOP-92 NSCLC
[14] = system: NCI-H522 lung
[15] = system: SF-539 CNS
[16] = system: T-47D breast
[17] = system: OVCAR-5 ovarian
[18] = system: SW-620 colon
[19] = system: SF-268 CNS
[20] = system: SR leukemia
[21] = system: A549 NSCLC
[22] = system: PC-3 prostate
[23] = system: SNB-75 CNS
[24] = system: LOX IMVI melanoma
[25] = system: M14 melanoma
[26] = system: MDA-MB-231 breast
[27] = system: HT29 colon
[28] = system: MDA-MB-435
[29] = system: COLO 205 colon
[30] = system: ACHN renal
[31] = system: SF-295 CNS
[32] = system: NCI/ADR-RES ovarian
[33] = system: HOP-62 NSCLC
[34] = system: NCI-H460 lung
[35] = system: OVCAR-8 ovarian
[36] = system: MOLT-4 leukemia
[37] = system: SK-MEL-28 melanoma
[38] = system: HL-60(TB) leukemia
[39] = system: CAKI-1 renal
[40] = system: MDA-MB-468 breast
[41] = system: UACC-257 melanoma
[42] = system: U251 CNS
[43] = system: 786-0 renal
[44] = system: OVCAR-4 ovarian
[45] = system: RPMI-8226 leukemia
[46] = system: OVCAR-3 ovarian
[47] = system: MCF7 breast
[48] = system: UO-31 renal
[49] = system: MALME-3M melanoma
[50] = system: HCT-116 colon
[51] = system: CCRF-CEM leukemia
[52] = system: K-562 leukemia
[53] = system: BT-549 breast
[54] = system: SK-OV-3 ovarian
[55] = system: KM12 colon
[56] = system: RXF 393 renal
[57] = system: SNB-19 CNS
[58] = system: HCC-2998 colon
[59] = system: IGROV1 ovarian

Compound: CCN1C(=O)N(CC)C2NNC(Sc3c(C(=O)O)c4ccccc4n(CCC(C)C)c3=O)=NC21 (centres undefined)
- GI50 [1]: 5.64 µM
- TGI [1]: 65.7 µM
- GI50 [2]: 9.35 µM
- TGI [2]: 31.2 µM
- GI50 [3]: 3.37 µM
- TGI [3]: 31 µM
- GI50 [4]: 3.5 µM
- TGI [4]: 17.7 µM
- GI50 [5]: 3.87 µM
- TGI [5]: 21 µM
- GI50 [6]: 4.11 µM
- TGI [6]: 19.8 µM
- GI50 [7]: 4.09 µM
- TGI [7]: 18.2 µM
- GI50 [8]: 4.34 µM
- TGI [8]: 16.6 µM
- GI50 [9]: 19.6 µM
- TGI [9]: 54.3 µM
- GI50 [10]: 2.75 µM
- TGI [10]: 13.7 µM
- GI50 [11]: 4.37 µM
- TGI [11]: 16.4 µM
- GI50 [12]: 17.5 µM
- TGI [12]: 63.8 µM
- GI50 [13]: 16.5 µM
- TGI [13]: 47.4 µM
- GI50 [14]: 2.52 µM
- TGI [14]: 8.42 µM
- GI50 [15]: 2.11 µM
- TGI [15]: 5.63 µM
- GI50 [16]: 20.5 µM
- TGI [16]: > 100 µM
- GI50 [17]: 3.06 µM
- TGI [17]: 17.5 µM
- GI50 [18]: 6.5 µM
- TGI [18]: 31 µM
- GI50 [19]: 10.4 µM
- TGI [19]: > 100 µM
- GI50 [20]: 22 µM
- TGI [20]: > 100 µM
- GI50 [21]: 6.07 µM
- TGI [21]: 24.2 µM
- GI50 [22]: 6.19 µM
- TGI [22]: > 100 µM
- GI50 [23]: 2.24 µM
- TGI [23]: 9.19 µM
- GI50 [24]: 5.11 µM
- TGI [24]: 18.5 µM
- GI50 [25]: 8.47 µM
- TGI [25]: > 100 µM
- GI50 [26]: 3.69 µM
- TGI [26]: 15.7 µM
- GI50 [27]: 3.33 µM
- TGI [27]: 13.3 µM
- GI50 [28]: 2.13 µM
- TGI [28]: 5.5 µM
- GI50 [29]: 3.65 µM
- TGI [29]: 11.6 µM
- GI50 [30]: 5.75 µM
- TGI [30]: 19.4 µM
- GI50 [31]: 3.3 µM
- TGI [31]: 13.2 µM
- GI50 [32]: 2.25 µM
- TGI [32]: 5.8 µM
- GI50 [33]: 6.68 µM
- TGI [33]: 43 µM
- GI50 [34]: 3.43 µM
- TGI [34]: 13.3 µM
- GI50 [35]: 5.54 µM
- TGI [35]: 51.7 µM
- GI50 [36]: 4.79 µM
- TGI [36]: > 100 µM
- GI50 [37]: 9.69 µM
- TGI [37]: 31.4 µM
- GI50 [38]: 3.12 µM
- TGI [38]: 34.1 µM
- GI50 [39]: 5.21 µM
- TGI [39]: 19.8 µM
- GI50 [40]: 0.386 µM
- TGI [40]: 3.33 µM
- GI50 [41]: 19.6 µM
- TGI [41]: 71.5 µM
- GI50 [42]: 4.33 µM
- TGI [42]: 36.9 µM
- GI50 [43]: 14.5 µM
- TGI [43]: 62.8 µM
- GI50 [44]: 17.9 µM
- TGI [44]: > 100 µM
- GI50 [45]: 4.61 µM
- TGI [45]: > 100 µM
- GI50 [46]: 5 µM
- TGI [46]: 21.3 µM
- GI50 [47]: 0.878 µM
- TGI [47]: 15.1 µM
- GI50 [48]: 4.07 µM
- TGI [48]: 22.5 µM
- GI50 [49]: 11.2 µM
- TGI [49]: 28.3 µM
- GI50 [50]: 4.12 µM
- TGI [50]: > 100 µM
- GI50 [51]: 4.62 µM
- TGI [51]: > 100 µM
- GI50 [52]: 3.69 µM
- TGI [52]: > 100 µM
- GI50 [53]: 35.8 µM
- TGI [53]: 91.4 µM
- GI50 [54]: 7.58 µM
- TGI [54]: 69.1 µM
- GI50 [55]: 4.12 µM
- TGI [55]: 53.5 µM
- GI50 [56]: 2.16 µM
- TGI [56]: 9.31 µM
- GI50 [57]: 4.56 µM
- TGI [57]: 25.1 µM
- GI50 [58]: 2.41 µM
- TGI [58]: 7.91 µM
- GI50 [59]: 3.06 µM
- TGI [59]: 18.1 µM

Compound: O=C(CNc1nc(-c2ccccc2)cs1)Nc1ccc(Cl)cc1
- GI50 [1]: 1.54 µM
- TGI [1]: 2.92 µM
- GI50 [2]: 0.646 µM
- TGI [2]: 2.07 µM
- GI50 [3]: 1.27 µM
- TGI [3]: > 91.3 µM
- GI50 [4]: 0.53 µM
- TGI [4]: 1.2 µM
- GI50 [5]: 0.651 µM
- TGI [5]: 2.94 µM
- GI50 [6]: 0.496 µM
- TGI [6]: 1.64 µM
- GI50 [7]: 0.465 µM
- TGI [7]: 1.23 µM
- GI50 [8]: 0.407 µM
- TGI [8]: 1.02 µM
- GI50 [9]: 2.15 µM
- TGI [9]: 5.02 µM
- GI50 [10]: 0.315 µM
- TGI [10]: 0.8 µM
- GI50 [11]: 0.44 µM
- TGI [11]: 0.851 µM
- GI50 [12]: 1.07 µM
- TGI [12]: 2.52 µM
- GI50 [13]: 0.461 µM
- TGI [13]: 2.13 µM
- GI50 [14]: 0.152 µM
- TGI [14]: 0.305 µM
- GI50 [15]: 0.518 µM
- TGI [15]: 0.971 µM
- GI50 [16]: 0.337 µM
- TGI [16]: 2.44 µM
- GI50 [17]: 1.03 µM
- TGI [17]: 2.41 µM
- GI50 [18]: 0.683 µM
- TGI [18]: 1.91 µM
- GI50 [19]: 1.88 µM
- TGI [19]: 10.1 µM
- GI50 [20]: 25.5 µM
- TGI [20]: > 100 µM
- GI50 [21]: 1.07 µM
- TGI [21]: 2.48 µM
- GI50 [22]: 0.519 µM
- TGI [22]: 2.61 µM
- GI50 [23]: 0.628 µM
- TGI [23]: 5.9 µM
- GI50 [24]: 0.167 µM
- TGI [24]: 0.616 µM
- GI50 [25]: 0.341 µM
- TGI [25]: 1.68 µM
- GI50 [26]: 0.48 µM
- TGI [26]: 1.39 µM
- GI50 [27]: 0.348 µM
- TGI [27]: 1.32 µM
- GI50 [28]: 0.559 µM
- TGI [28]: 2.1 µM
- GI50 [29]: 1.58 µM
- TGI [29]: 3.23 µM
- GI50 [30]: 0.385 µM
- TGI [30]: 0.846 µM
- GI50 [31]: 0.708 µM
- TGI [31]: 2.15 µM
- GI50 [32]: 0.213 µM
- TGI [32]: 0.533 µM
- GI50 [33]: 1.35 µM
- TGI [33]: 2.73 µM
- GI50 [34]: 0.936 µM
- TGI [34]: 3.12 µM
- GI50 [35]: 0.989 µM
- GI50 [36]: 0.364 µM
- GI50 [37]: 1.08 µM
- TGI [37]: 2.43 µM
- GI50 [38]: 0.304 µM
- TGI [38]: 2.26 µM
- GI50 [39]: 0.466 µM
- TGI [39]: 1.89 µM
- GI50 [40]: 0.394 µM
- TGI [40]: 0.877 µM
- GI50 [41]: 1.06 µM
- TGI [41]: 3.29 µM
- GI50 [42]: 0.339 µM
- TGI [42]: 0.813 µM
- GI50 [43]: 0.217 µM
- TGI [43]: 0.469 µM
- GI50 [44]: 1.34 µM
- TGI [44]: 3.17 µM
- GI50 [45]: 0.331 µM
- TGI [45]: 2.72 µM
- GI50 [46]: 0.552 µM
- TGI [46]: 1.31 µM
- GI50 [47]: 0.323 µM
- TGI [47]: 0.86 µM
- GI50 [48]: 0.654 µM
- TGI [48]: 2.03 µM
- GI50 [49]: 0.507 µM
- TGI [49]: 1.2 µM
- GI50 [50]: 0.196 µM
- TGI [50]: 0.796 µM
- GI50 [51]: 0.243 µM
- TGI [51]: > 21.5 µM
- GI50 [52]: 0.224 µM
- TGI [52]: > 100 µM
- GI50 [53]: 0.216 µM
- TGI [53]: 0.643 µM
- GI50 [54]: 1.39 µM
- TGI [54]: 4.54 µM
- GI50 [55]: 0.828 µM
- TGI [55]: 2.53 µM
- GI50 [56]: 0.514 µM
- TGI [56]: 1.17 µM
- GI50 [57]: 0.777 µM
- TGI [57]: 2.13 µM
- GI50 [58]: 0.835 µM
- TGI [58]: 2.18 µM
- GI50 [59]: 0.554 µM
- TGI [59]: 1.75 µM
